Laboratory results: US20260347338A1, “PYRIMIDINE/PYRIDINE DERIVATIVES OR SALTS THEREOF AND PHARMACEUTICAL COMPOSITIONS COMPRISING THE SAME” (YUHAN CORPORATION, priority 2023, published 2026)
Where a name gives a salt, the structure may show the parent alone.

Target: T1, human recombinant HPK1 (Homo sapiens, UniProt Q92918)
T1 construct: purchased BPS Bioscience
Assay: Inhibitory activity against human recombinant HPK1 (TR-FRET)
Format: biochemical
Settings: ULight-p70S6K peptide, ATP at Km, room temperature, 1 hour, 0.32 to 1000 nM compound
Outline: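 IC50 classes A–D use 10, 50 and 100 nM cut-offs, derived from TR-FRET signal inhibition relative to DMSO controls. Human recombinant HPK1 phosphorylated ULight-p70S6K peptide at Km ATP for 1 h, room temperature, pH 7.4; test range 0.32–1000 nM final, detection with Eu-labelled antibody after EDTA quench.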

T1 sequence (Q92918 whole entry): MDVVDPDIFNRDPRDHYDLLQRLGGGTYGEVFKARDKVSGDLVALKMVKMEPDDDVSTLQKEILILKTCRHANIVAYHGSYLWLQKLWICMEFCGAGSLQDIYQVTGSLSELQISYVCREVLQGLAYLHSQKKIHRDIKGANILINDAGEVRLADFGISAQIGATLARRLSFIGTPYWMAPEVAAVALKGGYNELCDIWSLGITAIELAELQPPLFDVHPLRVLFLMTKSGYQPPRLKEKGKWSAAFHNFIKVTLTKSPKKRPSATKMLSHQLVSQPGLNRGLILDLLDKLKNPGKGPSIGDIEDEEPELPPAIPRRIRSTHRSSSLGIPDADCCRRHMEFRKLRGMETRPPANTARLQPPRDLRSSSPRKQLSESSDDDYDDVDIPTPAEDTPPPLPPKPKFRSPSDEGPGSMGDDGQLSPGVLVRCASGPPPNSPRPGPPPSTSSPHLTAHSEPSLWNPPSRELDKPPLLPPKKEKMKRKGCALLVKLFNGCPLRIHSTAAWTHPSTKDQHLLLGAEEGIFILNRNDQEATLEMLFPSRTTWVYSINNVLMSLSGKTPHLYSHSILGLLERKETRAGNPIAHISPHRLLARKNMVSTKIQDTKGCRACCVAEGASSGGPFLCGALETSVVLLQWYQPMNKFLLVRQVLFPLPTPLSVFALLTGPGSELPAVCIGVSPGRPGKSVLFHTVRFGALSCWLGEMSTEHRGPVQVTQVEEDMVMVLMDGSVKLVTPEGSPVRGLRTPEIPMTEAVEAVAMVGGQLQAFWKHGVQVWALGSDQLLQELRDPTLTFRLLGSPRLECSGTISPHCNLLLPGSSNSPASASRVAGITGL

| IC50 [nM] | SMILES |
| --- | --- |
| ≤ 10 | COc1cc(F)cc(F)c1-c1nc(Nc2cc(N3CCC[C@H](N)C3)c(-c3cnn(CC(F)(F)F)c3)cn2)ccc1C#N [Example 320, 6-((4-((S)-3-aminopiperidin-1-yl)-5-(1-(2,2,2-trifluoroethyl)-1H-pyrazol-4-yl)pyridin-2-yl)amino)-2-(2,4-difluoro-6-methoxyphenyl)nicotinonitrile hydrochloride] |
| ≤ 10 | COc1cc(F)cc(F)c1-c1nccc(Nc2cc(N3C[C@@H](N)C[C@@H](F)C3)c(-c3cnn(CC(F)(F)F)c3)cn2)n1 [Example 324, N-(4-((3S,5R)-3-amino-5-fluoropiperidin-1-yl)-5-(2-(2,2,2-trifluoroethyl)-1H-pyrazol-4-yl)pyridin-2-yl)-2-(2,4-difluoro-6-methoxyphenyl)pyrimidin-4-amine] |
| ≤ 10 | COc1cccc(F)c1-c1nc(Nc2cc(N3CCC[C@H](N)C3)c(-c3cnn(C(C)C)c3)cn2)ccc1C#N [Example 328, 6-((4-((S)-3-aminopiperidin-1-yl)-5-(1-isopropyl-1H-pyrazol-4-yl)pyridin-2-yl)amino)-2-(2-fluoro-6-methoxyphenyl)nicotinonitrile hydrochloride] |
| ≤ 10 | COc1cccc(F)c1-c1nccc(Nc2cc(N3C[C@@H](N)C[C@H](F)C3)c(-c3cnn(CC(F)(F)F)c3)cn2)n1 [Example 332, N-(4-((3S,5S)-3-amino-5-fluoropiperidin-1-yl)-5-(1-(2,2,2-trifluoroethyl)-1H-pyrazol-4-yl)pyridin-2-yl)-2-(2-fluoro-6-methoxyphenyl)pyrimidin-4-amine hydrochloride] |
| ≤ 10 | COc1cc(F)cc(F)c1-c1nccc(Nc2cc(N3C[C@@H](N)C[C@H](F)C3)c(-c3cnn(CC(F)(F)F)c3)cn2)n1 [Example 333, N-(4-((3S,5S)-3-amino-5-fluoropiperidin-1-yl)-5-(1-(2,2,2-trifluoroethyl)-1H-pyrazol-4-yl)pyridin-2-yl)-2-(2,4-difluoro-6-methoxyphenyl)pyrimidin-4-amine hydrochloride] |
| ≤ 10 | COc1cc(F)cc(F)c1-c1nccc(Nc2cc(N3C[C@@H](N)C[C@@H](F)C3)c(-c3cnn(C(C)C)c3)cn2)n1 [Example 335, N-(4-((3S,5R)-3-amino-5-fluoropiperidin-1-yl)-5-(1-isopropyl-1H-pyrazol-4-yl)pyridin-2-yl)-2-(2,4-difluoro-6-methoxyphenyl)pyrimidin-4-amine] |
| ≤ 10 | COc1cc(F)cc(F)c1-c1nccc(Nc2cc(N3C[C@@H](N)C[C@H](F)C3)c(-c3cnn(C(C)C)c3)cn2)n1 [Example 336, N-(4-((3S,5S)-3-amino-5-fluoropiperidin-1-yl)-5-(1-isopropyl-1H-pyrazol-4-yl)pyridin-2-yl)-2-(2,4-difluoro-6-methoxyphenyl)pyrimidin-4-amine] |

The remaining lines, values behind:

| SMILES | IC50 [nM] |
| --- | --- |
| COc1cccc(F)c1-c1nc(Nc2cc(N3CCC[C@H](N)C3)c(-c3cnn(CC(C)(C)O)c3)cn2)ccc1C#N [Example 319, 6-((4-((S)-3-aminopiperidin-1-yl)-5-(1-(2-hydroxy-2-methylpropyl)-1H-pyrazol-4-yl)pyridin-2-yl)amino)-2-(2-fluoro-6-methoxyphenyl)nicotinonitrile hydrochloride] | ≤ 10 |
| COc1cccc(F)c1-c1nc(Nc2cc(N3CC[C@@H](F)[C@H](N)C3)c(-c3cnn(C(F)F)c3)cn2)ccc1C#N [Example 321, 6-((4-((3R,4R)-3-amino-4-fluoropiperidin-1-yl)-5-(1-(difluoromethyl)-1H-pyrazol-4-yl)pyridin-2-yl)amino)-2-(2-fluoro-6-methoxyphenyl)nicotinonitrile hydrochloride] | ≤ 10 |
| COc1cccc(F)c1-c1nc(Nc2cc(N3CC[C@H](F)[C@H](N)C3)c(-c3cnn(C(F)F)c3)cn2)ccc1C#N [Example 322, 6-((4-((3R,4S)-3-amino-4-fluoropiperidin-1-yl)-5-(1-(difluoromethyl)-1H-pyrazol-4-yl)pyridin-2-yl)amino)-2-(2-fluoro-6-methoxyphenyl)nicotinonitrile hydrochloride] | ≤ 10 |
| COc1cccc(F)c1-c1nc(Nc2cc(N3CCC[C@H](N)C3)c(-c3ccc(N4CCOCC4)nc3)cn2)ccc1C#N [Example 323, 6-((4-((S)-3-aminopiperidin-1-yl)-6′-morpholino-[3,3′-bipyridin]-6-yl)amino)-2-(2-fluoro-6-methoxyphenyl)nicotinonitrile hydrochloride] | ≤ 10 |
| COc1cccc(F)c1-c1nc(Nc2cc(N3CCC[C@H](O)C3)c(-c3cnn(C4CCN(C)CC4)c3)cn2)ccc1C#N [Example 325, 2-(2-fluoro-6-methoxyphenyl)-6-((4-((S)-3-hydroxypiperidin-1-yl)-5-(1-(1-methylpiperidin-4-yl)-1H-pyrazol-4-yl)pyridin-2-yl)amino)nicotinonitrile] | ≤ 10 |
| COc1cccc(F)c1-c1nc(Nc2cc(N3CC[C@@H](N)[C@H](O)C3)c(-c3cnn(C(F)F)c3)cn2)ccc1C#N [Example 326, 6-((4-((3R,4R)-4-amino-3-hydroxypiperidin-1-yl)-5-(1-(difluoromethyl)-1H-pyrazol-4-yl)pyridin-2-yl)amino)-2-(2-fluoro-6-methoxyphenyl)nicotinonitrile] | ≤ 10 |
| CCn1cc(-c2cnc(Nc3ccc(C#N)c(-c4c(F)cccc4OC)n3)cc2N2CCC[C@H](N)C2)cn1 [Example 327, 6-((4-((S)-3-aminopiperidin-1-yl)-5-(1-ethyl-1H-pyrazol-4-yl)pyridin-2-yl)amino)-2-(2-fluoro-6-methoxyphenyl)nicotinonitrile hydrochloride] | ≤ 10 |
| COc1cccc(F)c1-c1nc(Nc2cc(N3CCC[C@H](N)C3)c(-c3cnn(C4CC4)c3)cn2)ccc1C#N [Example 329, 6-((4-((S)-3-aminopiperidin-1-yl)-5-(1-cyclopropyl-1H-pyrazol-4-yl)pyridin-2-yl)amino)-2-(2-fluoro-6-methoxyphenyl)nicotinonitrile hydrochloride] | ≤ 10 |
| COc1cccc(F)c1-c1nc(Nc2cc(N3CCC[C@H](N)C3)c(-c3cnn(CC4CC4)c3)cn2)ccc1C#N [Example 330, 6-((4-((S)-3-aminopiperidin-1-yl)-5-(1-(cyclopropylmethyl)-1H-pyrazol-4-yl)pyridin-2-yl)amino)-2-(2-fluoro-6-methoxyphenyl)nicotinonitrile hydrochloride] | ≤ 10 |
| COc1cccc(F)c1-c1nc(Nc2cc(N3CC[C@@H](F)[C@H](O)C3)c(-c3cnn(C(F)F)c3)cn2)ccc1C#N [Example 331, 6-((5-(1-(difluoromethyl)-1H-pyrazol-4-yl)-4-((3R,4R)-4-fluoro-3-hydroxypiperidin-1-yl)pyridin-2-yl)amino)-2-(2-fluoro-6-methoxyphenyl)nicotinonitrile] | ≤ 10 |
| COc1cccc(F)c1-c1nc(Nc2cc(N3CC[C@@H](F)[C@H](N)C3)c(-c3cnn(C(F)F)c3)cn2)ccc1[N+](=O)[O-] [Example 334, 4-((3R,4R)-3-amino-4-fluoropiperidin-1-yl)-5-(1-(difluoromethyl)-1H-pyrazol-4-yl)-N-(6-(2-fluoro-6-methoxyphenyl)-5-nitropyridin-2-yl)pyridin-2-amine hydrochloride] | ≤ 10 |
